Tested on: human tonsil histocultures
Assay type: cell-based
Settings: for donors whose tissue responded by producing antigen-specific antibodies: antigen added to medium for 2 days, responding donors out of donors tested; for dose dependence of specific IgG response: antigen in the range of 10-100 ng/ml; for induction of antibody against the other antigen and effect on total IgG production: challenge by either TT or DT

Row | Substance | donors whose tissue responded by producing antigen-specific antibodies | dose dependence of specific IgG response | induction of antibody against the other antigen and effect on total IgG production | absolute amount of anti-TT IgG in medium (varied from tissue to tissue)
1 | diphtheria toxin [DT] | 17 of 24 | dose-dependent | did not induce the production of antibody against the other antigen nor did it increase total IgG production | –
2 | tetanus toxoid | 42 out of 55 | dose-dependent | did not induce the production of antibody against the other antigen nor did it increase total IgG production | hundreds to several thousands
